Values quoted from earlier work, collected in patent publication US8293711B2, “Use of natriuretic peptides for treating angioedema syndromes” (Pharis Biotech GmbH, priority 2007, dated 2012).

Columns and labels:
HEK-293 = conditions: human embryonic kidney cell line HEK-293; via activation of a cGMP-dependent pathway
[1] = tested on: bradykinin-induced edema in the hamster cheek pouch; conditions: unspecific tyrosine kinase inhibitors
[2] = tested on: acute renal failure models

| Compound | tyrosine phosphorylation (HEK-293) | bradykinin-mediated effect (edema) [1] | diuretic and natriuretic effects [2] |
| --- | --- | --- | --- |
| CC[C@H](C)[C@@H]1NC(=O)[C@H](CCCNC(=N)N)NC(=O)[C@H](CC(=O)O)NC(=O)[C@H](CCSC)NC(=O)[C@H](CCCNC(=N)N)NC(=O)CNC(=O)CNC(=O)[C@H](Cc2ccccc2)NC(=O)[C@@H](NC(=O)[C@H](CO)NC(=O)[C@H](CO)NC(=O)[C@H](CCCNC(=N)N)NC(=O)[C@H](CCCNC(=N)N)NC(=O)[C@H](CC(C)C)NC(=O)[C@@H](N)CO)CSSC[C@@H](C(=O)N[C@@H](CC(N)=O)C(=O)N[C@@H](CO)C(=O)N[C@@H](Cc2ccccc2)C(=O)N[C@@H](CCCNC(=N)N)C(=O)N[C@@H](Cc2ccc(O)cc2)C(=O)O)NC(=O)CNC(=O)[C@H](CC(C)C)NC(=O)CNC(=O)[C@H](CO)NC(=O)[C@H](CCC(N)=O)NC(=O)[C@H](C)NC(=O)CNC1=O [ANP, atrial natriuretic peptide] | able to counteract tyrosine phosphorylation |  |  |
| O=c1c(-c2ccc(O)cc2)coc2cc(O)cc(O)c12 [genistein] |  | attenuated |  |
| N#CC(C#N)=Cc1cc(O)c(O)c(O)c1 [tyrphostin 25] |  | attenuated |  |
| urodilatin | able to counteract tyrosine phosphorylation |  | strong diuretic and natriuretic effects |
